Experimental data taken from ChEMBL document CHEMBL1201862, “PubChem BioAssay data set” (2004).
The source made the active and inactive calls.

How the values were obtained:
[1] = molecular target: Ubiquitin carboxyl-terminal hydrolase BAP1 (Homo sapiens, UniProt Q92560); experiment: BAP1 deubiquitinase inhibitors, dose response, biochemical (AID 714); assay type: functional
Nonstructural protein 1 = Nonstructural protein 1 (Influenza A virus, UniProt Q194T2); assay type: functional, Influenza A virus (A/California/07/2009(H1N1))
Bcl-2-like protein 1 = Bcl-2-like protein 1 (Homo sapiens, UniProt Q07817); experiment: BCL-XL inhibitors, dose response, selectivity assay for MCL1 inhibitor project, biochemical, fluorescence polarization, 1536-well (AID 2218)
[2] = molecular target: Induced myeloid leukemia cell differentiation protein Mcl-1 (Homo sapiens, UniProt Q07820); experiment: MCL1-BIM BH3 interaction inhibitors, dose response, biochemical, fluorescence polarization, BIM-BH3 peptide, 1536-well (AID 2217)
Bcl-2-like protein 10 = molecular target: T1, Bcl-2-like protein 10 (Homo sapiens, UniProt Q9HD36); experiment: Biochemical TR3 FP assay of Bcl-B inhibitor potency, EC50 (AID 1243); assay type: functional
T1 sequence (Q9HD36 whole entry): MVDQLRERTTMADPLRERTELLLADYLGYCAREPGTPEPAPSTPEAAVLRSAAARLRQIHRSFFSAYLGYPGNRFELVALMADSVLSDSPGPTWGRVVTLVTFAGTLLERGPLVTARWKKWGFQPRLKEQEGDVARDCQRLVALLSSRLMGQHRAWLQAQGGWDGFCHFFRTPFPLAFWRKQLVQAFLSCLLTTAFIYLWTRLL

Mucolipin-3 = Mucolipin-3 (Homo sapiens, UniProt Q8TDD5); experiment: Dose response cell-based high-throughput screening assay for agonists of the transient receptor potential channel ML3 (TRPML3). [Related pubchem assays: 1526, 1424, 1448 ]; assay type: functional
Ion channel NompC = Ion channel NompC (Danio rerio, UniProt Q7T1G6); experiment: Fluorescence counterscreen assay for TRPML3 agonists: dose response cell-based high-throughput screening assay to identify agonists of the transient receptor potential channel N1 (TRPN1). [Related pubchem assays: 1526, 1424, 1448 ]; assay type: functional
[3] = inhibitors of Bluetongue virus cytopathic effect, confirmation, arbovirus, BSR cells (AID 1250); assay type: functional;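 further: protection from viral cytopathic effect measured as cell viability by ATP luminescence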
[4] = molecular target: T2, Short transient receptor potential channel 4 (Mus musculus, UniProt Q9QUQ5); experiment: mouse TRPC4 channel inhibitors, dose response, cell-based, HEK293 TRPC4/mu-opioid, Fluo-4 calcium (AID 434942); assay type: functional;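 further: potency of inhibitors blocking the TRPC4 calcium response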
T2 sequence (Q9QUQ5 whole entry): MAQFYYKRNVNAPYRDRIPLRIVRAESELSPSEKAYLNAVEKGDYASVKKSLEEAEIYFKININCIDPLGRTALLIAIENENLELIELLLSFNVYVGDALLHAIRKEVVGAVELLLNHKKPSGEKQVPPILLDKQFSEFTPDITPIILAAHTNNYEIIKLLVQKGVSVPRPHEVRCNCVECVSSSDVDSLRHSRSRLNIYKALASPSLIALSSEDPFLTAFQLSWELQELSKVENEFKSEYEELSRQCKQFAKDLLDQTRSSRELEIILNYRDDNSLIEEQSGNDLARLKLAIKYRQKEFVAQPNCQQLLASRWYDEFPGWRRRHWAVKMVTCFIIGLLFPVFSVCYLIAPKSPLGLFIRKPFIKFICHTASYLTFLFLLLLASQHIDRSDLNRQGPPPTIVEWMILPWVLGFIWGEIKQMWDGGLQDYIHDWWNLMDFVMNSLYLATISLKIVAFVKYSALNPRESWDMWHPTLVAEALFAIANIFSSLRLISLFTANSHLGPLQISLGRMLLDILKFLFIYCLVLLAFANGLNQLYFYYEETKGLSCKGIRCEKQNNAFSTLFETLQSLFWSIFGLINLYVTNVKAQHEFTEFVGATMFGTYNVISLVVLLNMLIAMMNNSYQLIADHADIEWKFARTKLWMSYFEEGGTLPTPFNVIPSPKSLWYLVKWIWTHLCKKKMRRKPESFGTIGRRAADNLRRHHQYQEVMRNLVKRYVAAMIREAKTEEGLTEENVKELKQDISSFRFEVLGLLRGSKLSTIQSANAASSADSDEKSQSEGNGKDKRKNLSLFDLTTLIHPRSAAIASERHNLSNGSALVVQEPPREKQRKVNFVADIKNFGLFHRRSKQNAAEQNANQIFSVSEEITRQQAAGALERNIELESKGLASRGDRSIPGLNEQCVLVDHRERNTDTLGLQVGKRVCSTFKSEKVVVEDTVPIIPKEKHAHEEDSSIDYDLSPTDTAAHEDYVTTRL

Leucine aminopeptidase = molecular target: T3, Leucine aminopeptidase (Plasmodium falciparum 3D7, UniProt Q8IL11); experiment: P. falciparum M17LAP inhibitors, primary screen, biochemical, fluorogenic H-Leu-NHMec substrate, 1536-well (AID 1619); assay type: functional
T3 sequence (Q8IL11 whole entry): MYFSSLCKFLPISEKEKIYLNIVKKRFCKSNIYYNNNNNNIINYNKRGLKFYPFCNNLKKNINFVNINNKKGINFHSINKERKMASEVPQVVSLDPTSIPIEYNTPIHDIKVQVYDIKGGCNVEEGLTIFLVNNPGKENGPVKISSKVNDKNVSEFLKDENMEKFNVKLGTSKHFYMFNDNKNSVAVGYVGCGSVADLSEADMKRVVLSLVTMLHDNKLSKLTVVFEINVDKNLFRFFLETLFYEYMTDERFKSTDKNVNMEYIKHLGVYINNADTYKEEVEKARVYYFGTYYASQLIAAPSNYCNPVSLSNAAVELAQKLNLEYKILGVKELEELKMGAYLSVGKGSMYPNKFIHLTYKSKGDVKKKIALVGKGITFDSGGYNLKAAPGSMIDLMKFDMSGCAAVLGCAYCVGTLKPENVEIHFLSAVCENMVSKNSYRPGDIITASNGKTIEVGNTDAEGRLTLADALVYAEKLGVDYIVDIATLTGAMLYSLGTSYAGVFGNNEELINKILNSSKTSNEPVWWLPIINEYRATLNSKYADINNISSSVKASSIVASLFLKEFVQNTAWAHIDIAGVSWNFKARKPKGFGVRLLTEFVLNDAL

[5] = microbe, parasite or virus in culture; assay type: functional; details: Mycobacterium tuberculosis
Cytochrome P450 2D6 = Cytochrome P450 2D6 (Homo sapiens, UniProt P10635);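 further: CYP2D6 member of a cytochrome P450 panel assay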
Cytochrome P450 3A4 = Cytochrome P450 3A4 (Homo sapiens, UniProt P08684);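 further: CYP3A4 tested as one member of a cytochrome P450 panel screen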
Vero = experiment: host cell cytotoxicity of antiviral hits, dose response, cytotoxicity control for West Nile virus antiviral project, secondary assay (AID 1650); assay type: functional; details: Chlorocebus sabaeus
[6] = A High Throughput Confirmatory Assay used to Identify Novel Compounds that Inhibit Mycobacterium Tuberculosis in the absence of Glycerol.; assay type: functional
[7] = molecular target: Neuropeptide Y receptor type 1 (Homo sapiens, UniProt P25929); experiment: Fluorescence-based counterscreen for agonists of NPY-Y2: cell-based high-throughput dose response assay for agonists of NPY-Y1.; assay type: functional
HEK293 = experiment: Fluorescence-based counterscreen for potentiators or agonists of NPY-Y2: cell-based high-throughput dose response assay to identify inhibitors of cyclic nucleotide gated ion channel (CNGC) activity. In this assay, the parental HEK293 cell line transfected with a cyclic-nucleotide gated ion channel (CNGC)-based cAMP sensor is used to measure inhibition of isoproterenol-induced CNGC activity by test compound.; assay type: functional; details: Homo sapiens;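 further: stimulus is 1 µM isoproterenol at EC100 plus PDE inhibitor Ro 20-1724 at 25 µM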
[8] = molecular target: Neuropeptide Y receptor type 2 (Homo sapiens, UniProt P49146); experiment: Fluorescence-based cell-based high-throughput dose response assay for agonists of NPY-Y2. [Related pubchem assays: 1703 (Screening assay (CNGC inhibitors).), 1359 (Screening assay (NPY-Y2 potentiators or agonists).), 1304 (Screening assay (NPY-Y1 potentiators or agonists).), 1710 (Screening assay (NPY-Y2 agonists).), 1791 (Summary AID.)]; assay type: functional
NADPH oxidase 1 = NADPH oxidase 1 (Homo sapiens, UniProt Q9Y5S8); assay type: functional, cell-based;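 further: Cell-based assay with luminescence read-out, IC50 derived from inhibitor dose-response curves; intracellular ROS from endogenous NOX1 in intact HT29 colon cancer cells; potency of inhibitors that lower the ROS luminescence signal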
[9] = molecular target: Mothers against decapentaplegic homolog 3 (Homo sapiens, UniProt P84022); experiment: SMAD3 transcription factor inhibitors, dose response (AID 715); assay type: functional
Cytochrome P450 2C19 = Cytochrome P450 2C19 (Homo sapiens, UniProt P33261); experiment: Cytochrome panel assay with activity outcomes. Panel member name: p450-cyp2c19 Compounds with AC50 equal or less than 10 uM are considered active; assay type: functional
[10] = growth suppression of beta-catenin-knockout colon cells, dose response, cell-based, HCT116, human colon tumor (AID 1045); assay type: functional;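 further: HCT116 colon tumor cells with beta catenin knocked out; cells exposed to compound for 60 hours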
[11] = growth suppression of PTEN-null colon cells, dose response, cell-based, HCT116 PTEN knockout (AID 1047); assay type: functional;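 further: HCT116 colon tumor cells with PTEN knocked out; cells exposed to compound for 60 hours before readout; potency for loss of cell viability measured by luminescence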
Estrogen receptor = molecular target: T4, Estrogen receptor (Homo sapiens, UniProt P03372); experiment: potentiators of ERα–SRC-1 coactivator binding, dose response, biochemical, TR-FRET, ERα LBD (AID 737)
T4 sequence (P03372 whole entry): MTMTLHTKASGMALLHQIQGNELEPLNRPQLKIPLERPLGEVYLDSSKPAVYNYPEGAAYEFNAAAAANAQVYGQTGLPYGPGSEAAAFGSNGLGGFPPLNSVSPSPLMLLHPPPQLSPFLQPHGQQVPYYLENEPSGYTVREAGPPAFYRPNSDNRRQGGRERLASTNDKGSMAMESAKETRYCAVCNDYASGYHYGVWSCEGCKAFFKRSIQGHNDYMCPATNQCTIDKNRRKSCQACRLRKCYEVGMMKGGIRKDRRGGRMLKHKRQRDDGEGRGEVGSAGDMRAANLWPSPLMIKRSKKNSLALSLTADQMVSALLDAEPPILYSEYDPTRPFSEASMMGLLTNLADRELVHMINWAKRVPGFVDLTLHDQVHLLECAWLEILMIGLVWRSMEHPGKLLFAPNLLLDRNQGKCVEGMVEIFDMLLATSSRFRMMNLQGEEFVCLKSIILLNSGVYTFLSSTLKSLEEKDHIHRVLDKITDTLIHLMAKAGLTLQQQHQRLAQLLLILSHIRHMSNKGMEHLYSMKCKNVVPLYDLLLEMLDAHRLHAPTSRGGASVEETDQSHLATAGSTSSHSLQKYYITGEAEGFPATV

Cytochrome P450 2D6, sequence (P10635 whole entry): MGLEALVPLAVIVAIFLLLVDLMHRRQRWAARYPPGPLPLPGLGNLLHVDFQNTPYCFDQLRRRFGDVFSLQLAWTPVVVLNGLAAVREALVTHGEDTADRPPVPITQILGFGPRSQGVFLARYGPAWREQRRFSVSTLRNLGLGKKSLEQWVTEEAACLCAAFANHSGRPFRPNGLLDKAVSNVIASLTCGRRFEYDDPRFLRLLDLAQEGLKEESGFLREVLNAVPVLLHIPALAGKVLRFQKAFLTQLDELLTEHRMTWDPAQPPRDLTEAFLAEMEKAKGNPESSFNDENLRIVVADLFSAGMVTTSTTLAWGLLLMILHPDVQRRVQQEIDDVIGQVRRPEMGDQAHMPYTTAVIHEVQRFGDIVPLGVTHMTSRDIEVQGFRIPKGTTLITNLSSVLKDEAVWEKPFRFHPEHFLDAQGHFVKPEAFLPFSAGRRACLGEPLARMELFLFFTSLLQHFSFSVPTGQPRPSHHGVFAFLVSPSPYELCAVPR
Induced myeloid leukemia cell differentiation protein Mcl-1, sequence (Q07820 whole entry): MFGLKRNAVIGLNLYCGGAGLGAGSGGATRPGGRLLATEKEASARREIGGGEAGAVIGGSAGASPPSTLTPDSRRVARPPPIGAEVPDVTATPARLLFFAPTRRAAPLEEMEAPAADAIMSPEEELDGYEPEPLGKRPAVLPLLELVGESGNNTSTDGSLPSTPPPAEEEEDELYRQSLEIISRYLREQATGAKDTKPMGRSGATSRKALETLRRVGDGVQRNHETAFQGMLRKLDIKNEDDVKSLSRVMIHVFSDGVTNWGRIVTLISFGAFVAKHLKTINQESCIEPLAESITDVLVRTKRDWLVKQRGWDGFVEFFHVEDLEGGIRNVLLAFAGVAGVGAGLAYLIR
Ion channel NompC, sequence (Q7T1G6 whole entry): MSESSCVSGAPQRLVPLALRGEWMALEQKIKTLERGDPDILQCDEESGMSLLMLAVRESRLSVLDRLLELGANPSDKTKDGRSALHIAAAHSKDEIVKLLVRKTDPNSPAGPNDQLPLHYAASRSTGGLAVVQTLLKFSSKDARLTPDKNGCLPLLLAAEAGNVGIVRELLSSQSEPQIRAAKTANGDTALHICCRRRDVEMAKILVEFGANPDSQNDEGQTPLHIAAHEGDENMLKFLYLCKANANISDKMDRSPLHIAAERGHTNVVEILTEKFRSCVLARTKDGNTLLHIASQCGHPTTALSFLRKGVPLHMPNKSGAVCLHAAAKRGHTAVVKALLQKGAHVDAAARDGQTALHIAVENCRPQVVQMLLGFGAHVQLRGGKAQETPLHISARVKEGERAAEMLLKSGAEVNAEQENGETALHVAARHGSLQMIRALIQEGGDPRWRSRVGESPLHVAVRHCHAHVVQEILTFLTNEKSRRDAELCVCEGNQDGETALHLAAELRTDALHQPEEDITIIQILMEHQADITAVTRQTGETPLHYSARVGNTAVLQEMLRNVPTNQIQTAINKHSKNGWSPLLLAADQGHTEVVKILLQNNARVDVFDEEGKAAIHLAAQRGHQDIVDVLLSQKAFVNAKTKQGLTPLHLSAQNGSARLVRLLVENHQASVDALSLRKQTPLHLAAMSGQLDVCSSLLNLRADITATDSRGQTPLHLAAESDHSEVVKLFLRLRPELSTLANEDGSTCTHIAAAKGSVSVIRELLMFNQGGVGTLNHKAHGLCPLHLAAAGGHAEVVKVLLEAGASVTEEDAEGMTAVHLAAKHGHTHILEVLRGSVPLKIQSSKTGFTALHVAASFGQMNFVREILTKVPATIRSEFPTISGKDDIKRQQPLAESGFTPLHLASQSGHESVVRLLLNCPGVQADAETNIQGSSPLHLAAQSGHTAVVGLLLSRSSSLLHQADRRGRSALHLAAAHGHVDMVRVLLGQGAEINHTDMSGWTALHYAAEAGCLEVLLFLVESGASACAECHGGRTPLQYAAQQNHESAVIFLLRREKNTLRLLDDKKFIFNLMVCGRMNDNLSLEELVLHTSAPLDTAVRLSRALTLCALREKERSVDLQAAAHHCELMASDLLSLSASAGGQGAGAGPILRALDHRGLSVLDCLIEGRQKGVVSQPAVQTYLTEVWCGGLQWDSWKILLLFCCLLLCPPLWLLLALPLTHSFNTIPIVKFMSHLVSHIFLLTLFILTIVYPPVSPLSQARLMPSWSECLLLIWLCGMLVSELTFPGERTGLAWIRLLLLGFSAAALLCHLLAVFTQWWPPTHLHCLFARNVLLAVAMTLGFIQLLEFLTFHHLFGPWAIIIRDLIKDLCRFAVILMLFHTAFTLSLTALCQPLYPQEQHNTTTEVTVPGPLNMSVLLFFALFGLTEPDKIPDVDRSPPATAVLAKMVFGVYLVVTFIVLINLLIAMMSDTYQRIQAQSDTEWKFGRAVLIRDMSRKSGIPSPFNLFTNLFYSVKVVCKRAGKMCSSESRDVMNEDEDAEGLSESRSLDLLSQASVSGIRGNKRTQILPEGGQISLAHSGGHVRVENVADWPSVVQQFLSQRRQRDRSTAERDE
Ubiquitin carboxyl-terminal hydrolase BAP1, sequence (Q92560 whole entry): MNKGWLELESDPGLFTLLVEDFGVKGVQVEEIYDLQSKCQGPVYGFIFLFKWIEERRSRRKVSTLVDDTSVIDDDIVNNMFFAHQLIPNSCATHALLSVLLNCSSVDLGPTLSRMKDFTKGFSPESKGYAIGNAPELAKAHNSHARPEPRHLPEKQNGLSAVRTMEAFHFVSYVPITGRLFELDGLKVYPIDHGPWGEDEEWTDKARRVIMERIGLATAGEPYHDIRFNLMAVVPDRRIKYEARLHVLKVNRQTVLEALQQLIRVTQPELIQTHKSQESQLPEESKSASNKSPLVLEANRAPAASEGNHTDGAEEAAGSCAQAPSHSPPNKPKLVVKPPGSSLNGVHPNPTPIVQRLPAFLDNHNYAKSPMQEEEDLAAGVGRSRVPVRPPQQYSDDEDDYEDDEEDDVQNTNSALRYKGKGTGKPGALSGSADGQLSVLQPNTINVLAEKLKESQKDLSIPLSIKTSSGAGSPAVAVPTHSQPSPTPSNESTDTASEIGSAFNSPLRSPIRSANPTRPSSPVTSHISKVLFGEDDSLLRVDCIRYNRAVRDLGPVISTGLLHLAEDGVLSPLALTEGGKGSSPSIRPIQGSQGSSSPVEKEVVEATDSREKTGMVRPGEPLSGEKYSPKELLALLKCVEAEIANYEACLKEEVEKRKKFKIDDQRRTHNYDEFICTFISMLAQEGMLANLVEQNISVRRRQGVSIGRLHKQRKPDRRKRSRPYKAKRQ
Mucolipin-3, sequence (Q8TDD5 whole entry): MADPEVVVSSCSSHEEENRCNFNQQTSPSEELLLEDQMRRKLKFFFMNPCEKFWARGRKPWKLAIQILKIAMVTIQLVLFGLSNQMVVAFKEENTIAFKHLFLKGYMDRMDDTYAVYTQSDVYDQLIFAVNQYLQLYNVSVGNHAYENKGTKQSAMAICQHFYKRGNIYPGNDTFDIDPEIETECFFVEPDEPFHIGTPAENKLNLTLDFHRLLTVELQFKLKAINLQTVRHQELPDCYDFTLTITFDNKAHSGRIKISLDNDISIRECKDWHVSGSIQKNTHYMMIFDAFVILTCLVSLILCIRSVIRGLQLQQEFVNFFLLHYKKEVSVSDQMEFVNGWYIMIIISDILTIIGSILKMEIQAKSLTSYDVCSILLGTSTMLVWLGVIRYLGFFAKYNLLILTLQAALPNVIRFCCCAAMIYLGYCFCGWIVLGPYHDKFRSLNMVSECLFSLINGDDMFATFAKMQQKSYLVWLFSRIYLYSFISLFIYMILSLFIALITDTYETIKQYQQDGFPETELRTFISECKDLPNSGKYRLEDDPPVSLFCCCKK
Neuropeptide Y receptor type 1, sequence (P25929 whole entry): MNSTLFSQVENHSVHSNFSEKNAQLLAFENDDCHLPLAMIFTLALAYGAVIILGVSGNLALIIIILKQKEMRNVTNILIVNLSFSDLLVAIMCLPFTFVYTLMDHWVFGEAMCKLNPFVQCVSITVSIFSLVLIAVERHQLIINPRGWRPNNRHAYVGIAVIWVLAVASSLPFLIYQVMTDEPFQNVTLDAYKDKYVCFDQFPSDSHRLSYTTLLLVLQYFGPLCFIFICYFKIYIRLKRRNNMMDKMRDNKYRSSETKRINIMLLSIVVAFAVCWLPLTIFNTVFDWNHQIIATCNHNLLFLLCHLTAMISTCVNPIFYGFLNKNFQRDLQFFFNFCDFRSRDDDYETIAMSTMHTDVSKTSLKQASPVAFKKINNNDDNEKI
Cytochrome P450 3A4, sequence (P08684 whole entry): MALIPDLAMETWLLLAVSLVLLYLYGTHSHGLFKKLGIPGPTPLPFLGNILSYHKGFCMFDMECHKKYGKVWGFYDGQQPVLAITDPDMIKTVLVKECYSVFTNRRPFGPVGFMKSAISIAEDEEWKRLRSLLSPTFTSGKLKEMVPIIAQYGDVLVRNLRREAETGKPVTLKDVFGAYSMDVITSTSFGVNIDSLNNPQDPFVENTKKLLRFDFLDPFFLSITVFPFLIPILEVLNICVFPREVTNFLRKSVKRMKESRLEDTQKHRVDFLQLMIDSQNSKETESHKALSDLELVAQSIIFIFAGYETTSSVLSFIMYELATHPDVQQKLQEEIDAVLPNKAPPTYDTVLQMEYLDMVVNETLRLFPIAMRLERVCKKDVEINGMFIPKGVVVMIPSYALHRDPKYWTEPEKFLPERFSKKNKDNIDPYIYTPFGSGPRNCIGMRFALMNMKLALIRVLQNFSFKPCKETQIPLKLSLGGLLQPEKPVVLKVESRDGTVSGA
Neuropeptide Y receptor type 2, sequence (P49146 whole entry): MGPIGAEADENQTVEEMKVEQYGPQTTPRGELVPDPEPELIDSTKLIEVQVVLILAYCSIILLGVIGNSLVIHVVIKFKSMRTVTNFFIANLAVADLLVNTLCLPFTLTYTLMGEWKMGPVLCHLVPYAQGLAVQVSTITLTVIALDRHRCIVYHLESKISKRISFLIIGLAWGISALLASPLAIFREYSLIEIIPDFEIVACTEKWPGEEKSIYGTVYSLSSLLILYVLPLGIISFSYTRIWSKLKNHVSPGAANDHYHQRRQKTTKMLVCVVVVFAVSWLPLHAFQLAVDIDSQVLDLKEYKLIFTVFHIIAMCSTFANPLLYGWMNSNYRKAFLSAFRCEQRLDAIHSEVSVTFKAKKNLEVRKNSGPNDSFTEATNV

Q: With `COc1cccc(NC(=O)c2ccccc2-c2nc(-c3ccc(Cl)cc3)no2)c1` as the compound, how does the IC50 [1] read?
A: 9 µM (active)

Q: For `COc1cccc(/C=N/NC(=S)Nc2cccc(C(=O)O)c2)c1O`, which IC50 (Nonstructural protein 1) is on record?
A: 4.94 µM (active)

Q: And the IC50 (Bcl-2-like protein 1)?
A: > 109 µM (not active)

Q: And the IC50 [2]?
A: > 109 µM (not active)

Q: Which EC50 (Bcl-2-like protein 10) does the source give for `CN1CCN(CN2C(=O)/C(=N\NC(=O)CSc3nc4ccccc4s3)c3ccccc32)CC1` here?
A: 12.9 µM (active)

Q: Which EC50 (Mucolipin-3) does the source give for `COc1ccc(Cl)cc1N(CC(=O)N1CCCCC1)S(C)(=O)=O` here?
A: 2.38 µM (active)

Q: And the EC50 (Ion channel NompC)?
A: > 29.9 µM (not active)

Q: What does the source list for `Cc1ccc(-c2csc(NC(=O)C3CC=CCC3C(=O)O)c2C(=O)OC(C)C)cc1` (stereo not given)?
A: IC50 [3]: 39.4 µM (active); EC50 [4]: 5.96 µM (active); IC50 (Leucine aminopeptidase): 9.13 µM (active)

Q: With `COc1ccccc1C1CC(c2c(O)nc3ccc(Cl)cc3c2-c2ccccc2)=NN1S(C)(=O)=O` (stereo not given) as the compound, how does the CC50 [5] read?
A: 25.2 µM (active)

Q: And the AC50 (Cytochrome P450 2D6)?
A: 7.08 µM (inconclusive)

Q: And the AC50 (Cytochrome P450 3A4)?
A: 39.8 µM (inconclusive)

Q: What about the CC50 (Vero) of the same compound?
A: 16 µM (active)

Q: And the IC50 [6]?
A: > 100 µM (active)

Q: With `Fc1ccc2c(c1)/C(=N/Nc1ccccn1)CCS2` as the compound, how does the EC50 [7] read?
A: 12.4 µM (not active)

Q: And the EC50 (HEK293)?
A: 7.7 µM (active)

Q: What about the EC50 [8] of the same compound?
A: 11.3 µM (not active)

Q: Which IC50 (NADPH oxidase 1) does the source give for `O=C(Oc1cccc(F)c1)c1sc2ccccc2c1Cl` here?
A: > 17 µM (not active)

Q: What does the source list for `O=C(NCCCN1CCCCCC1)C1CC(=O)N(CCc2ccccc2)C1` (stereo not given)?
A: IC50 [9]: 10.2 µM (active); AC50 (Cytochrome P450 2D6): 25.1 µM (inconclusive); AC50 (Cytochrome P450 2C19): inconclusive

Q: Which results are given for `Cc1ccc(-c2nnc(-c3ccc(NC(=O)c4ccco4)cc3)o2)cc1`?
A: EC50 [10]: 46.1 µM (active); EC50 [11]: 28.4 µM (active); EC50 (Estrogen receptor): 10.4 µM (active)
